Test results: article PMC6685951, “Migration of Bacteriocins Across Gastrointestinal Epithelial and Vascular Endothelial Cells, as Determined Using In Vitro Simulations” (Scientific Reports, 2019)
Where a SMILES comes first, the peptide text is derived from it. Bridges are numbered along the chain shown (N, C = ends).

Key:
HUVEC = assay: LDH release assay, HUVEC; type: cell-based, human; conditions: 24 h
Method: For viability and cytotoxicity studies, cells were seeded in 96-well flat-bottom culture plates (1 × 10^4 cells/well). To determine migration of nisin A, plantaricin 423 and bacST4SA across the gastrointestinal epithelial and vascular endothelial barriers, HUVEC and Caco-2 cells were grown on an 8 µm pore size tissue culture insert, as shown in Fig. 1. All cell culture experiments were done in triplicate and have been repeated more than three times.
HUVEC and Caco-2 cells were exposed to three different concentrations (25 µM, 50 µM and 100 µM) nisin A, plantaricin 423 and bacST4SA and the presence of extracellular LDH determined using the LDH release assay kit. Sterile ultrapure water was used as negative control (referred to as spontaneous LDH activity) and lysis buffer (10X) was used as positive control (referred to as maximum LDH activity). After incubating the cultures in the presence of the peptides for 24 h at 37 °C, culture supernatants were pipetted into a 96-well plate. Reaction mixture was added to the supernatants and plates were incubated at 25 °C for 30 min. Absorbance was measured at 490 nm and 680 nm, respectively. The percentage cytotoxicity was calculated as follows (1):1 %Cytotoxicity=(Compound−treatedLDHactivity)−(SpontaneousLDHactivity)/MaximumLDHactivity−SpontaneousLDHactivity×100

L. monocytogenes EGDe = assay: Antimicrobial activity of NHS-fluorescein labelled versus unlabelled peptides (zone sizes); type: cell-based, Listeria monocytogenes; conditions: 50 µM, 20 µL spotted on LEB agar seeded with L. monocytogenes EGDe, overnight 37 °C
Method: HPLC purified stock solutions of nisin A, plantaricin 423 and bacST4SA were prepared by dissolving the peptides in sterile ultrapure water. Immediately before conjugating NHS-fluorescein to the peptides, a stock solution of NHS-fluorescein was prepared by dissolving 1 mg of reagent in 100 µL DMF. The amount of NHS-fluorescein to be added to each peptide was calculated using the Eqs (2) and (3):2 mLpeptide×mgpeptide/mLpeptide×mmolpeptide/mgpeptide×15mmolNHS/mmolpeptide=mmolNHS 3 mmolNHS×473.4(MWofNHS)/mmolNHS×100µLDMF/1mg=µLNHS
The calculated concentration of NHS-fluorescein was added to the peptides and incubated on ice for 2 h. Non-reacted NHS-fluorescein was removed by Sep-Pak C18 column chromatography. Plantaricin 423 and bacST4SA were eluted with 60% acetonitrile containing 0.1% TFA and nisin A with 40% acetonitrile containing 0.1% TFA. Peptides were freeze dried and resuspended in sterile ultrapure water. Concentrations of the labelled peptides were determined with the BCA assay and diluted to 50 µM. Labelled peptides were filtered through a 0.45 µm HVLP membrane and spotted (20 µL) onto LEB agar seeded with 1% L. monocytogenes EGDe (OD600 0.1). Plates were incubated overnight at 37 °C and the fluorescent peptides visualised under a UVP 3UV Ultraviolet Lamp. Inhibition zones were measured using ImageJ software and compared to those of non-labelled peptides.

`CC(C)C[C@@H]1NC(=O)[C@H](Cc2c[nH]cn2)NC(=O)[C@H](CO)NC(=O)[C@H](C(C)C)NC(=O)[C@H](CO)NC(=O)[C@@H](NC(=O)[C@H](CO)NC(=O)[C@H](Cc2ccccc2)NC(=O)[C@H](C)NC(=O)[C@H](CCC(N)=O)NC(=O)CNC(=O)[C@H](Cc2c[nH]c3ccccc23)NC(=O)[C@H](CC(N)=O)NC(=O)[C@@H](NC(=O)[C@H](CO)NC(=O)[C@@H]2CSSC[C@H](NC(=O)[C@@H](NC(=O)[C@@H](NC(=O)CNC(=O)[C@H](CC(N)=O)NC(=O)CNC(=O)[C@H](Cc3ccc(O)cc3)NC(=O)[C@H](Cc3ccc(O)cc3)NC(=O)[C@@H](N)CCCCN)C(C)C)[C@@H](C)O)C(=O)NCC(=O)N[C@@H](CCCCN)C(=O)N[C@@H](Cc3c[nH]cn3)C(=O)N[C@@H](CO)C(=O)N2)C(C)C)CSSC[C@@H](C(=O)O)NC(=O)[C@H](CCCCN)NC(=O)CNC(=O)[C@H](Cc2c[nH]cn2)NC(=O)CNC(=O)[C@H](Cc2ccccc2)NC(=O)[C@H](CC(N)=O)NC(=O)[C@H](C)NC1=O` [plantaricin 423] (H-KYYGNGVTCGKHSCSVNWGQAFSCSVSHLANFGHGKC-OH; disulfide 9-14, 24-37; N-terminus and C-terminus assumed) was tested, and the “cytotoxicity level (LDH release)” value (HUVEC; 100 µM, 37 °C, percentage of maximum LDH release (lysis buffer = 100%)) was 21%, the “toxicity (LDH release)” value (HUVEC; concentrations up to 100 µM) was “minimal toxicity” and the “decrease in activity of labelled versus unlabelled peptide (antimicrobial zone sizes)” value (L. monocytogenes EGDe) was 24%.
